From ChEMBL document CHEMBL1667745, “Synthesis and antibacterial evaluation of novel clarithromycin derivatives with C-4″ elongated arylalkyl groups against macrolide-resistant strains” (2011) come the findings set out here.

In brackets after ≈: the same amount, converted by molar mass.

Common to all, as to type: functional
The test system of assay [1] is Streptococcus pyogenes. Description: Antimicrobial activity against erythromycin-susceptible Streptococcus pyogenes S2 by broth microdilution method. Background: Dilution methods test growth across graded concentrations, often in twofold steps.
The test system of assay [2] is Streptococcus pneumoniae. Kind of assay: Antimicrobial activity against erythromycin-resistant Streptococcus pneumoniae B1 expressing the erm gene by broth microdilution method.
For assay [3], the system named is Staphylococcus aureus. Description: Antimicrobial activity against erythromycin-susceptible Staphylococcus aureus ATCC 25923 by broth microdilution method.
In assay [4] the test system is Staphylococcus aureus. Description: Antimicrobial activity against penicillin-susceptible Staphylococcus aureus P1 by broth microdilution method.
The subject of assay [5] is Streptococcus pneumoniae. Description: Antimicrobial activity against erythromycin-susceptible Streptococcus pneumoniae ATCC 49619 by broth microdilution method.
For assay [6], the system named is Streptococcus pyogenes. Kind of assay: Antimicrobial activity against erythromycin-resistant Streptococcus pyogenes R2 by broth microdilution method.
Assay [7] has as its system Streptococcus pneumoniae. Description: Antimicrobial activity against erythromycin-resistant Streptococcus pneumoniae A22072 expressing the mef gene by broth microdilution method.
For assay [8], the system named is Streptococcus pneumoniae. Description: Antimicrobial activity against erythromycin-resistant Streptococcus pneumoniae AB11 expressing the erm and mef gene by broth microdilution method.

Usually MIC stands for the lowest concentration found to suppress growth. As to `CC[C@H]1OC(=O)[C@H](C)[C@@H](O[C@H]2C[C@@](C)(OC)[C@@H](OC(=O)NCCCCCC(=O)NC(C)C)[C@H](C)O2)[C@H](C)[C@@H](O[C@@H]2O[C@H](C)C[C@H](N(C)C)[C@H]2O)[C@](C)(OC)C[C@@H](C)C(=O)[C@H](C)[C@@H](O)[C@]1(C)O`, the MIC in assay [1] stood at 0.12 µg/mL (≈ 0.127 µM); in assay [2], 128 µg/mL (≈ 135 µM); in assay [3] it was 0.25 µg/mL (≈ 0.264 µM); in assay [4] it was 1 µg/mL (≈ 1.06 µM); in assay [5] it was 0.06 µg/mL (≈ 0.0634 µM); in assay [6], 32 µg/mL (≈ 33.8 µM). Moreover, the MIC in assay [7] was 8 µg/mL (≈ 8.45 µM); in assay [8], 128 µg/mL (≈ 135 µM).
In the case of `CCCNC(=O)CCCCCNC(=O)O[C@H]1[C@H](C)O[C@@H](O[C@H]2[C@H](C)[C@@H](O[C@@H]3O[C@H](C)C[C@H](N(C)C)[C@H]3O)[C@](C)(OC)C[C@@H](C)C(=O)[C@H](C)[C@@H](O)[C@](C)(O)[C@@H](CC)OC(=O)[C@@H]2C)C[C@@]1(C)OC`, the MIC amounted to 0.03 µg/mL (≈ 0.0317 µM) in assay [1]; 128 µg/mL (≈ 135 µM) in assay [2]; 0.5 µg/mL (≈ 0.528 µM) in assay [3]; 2 µg/mL (≈ 2.11 µM) in assay [4]; 0.03 µg/mL (≈ 0.0317 µM) in assay [5]; 16 µg/mL (≈ 16.9 µM) in assay [6]. The results for the MIC in assay [7] and in assay [8] were 4 µg/mL (≈ 4.23 µM) and 128 µg/mL (≈ 135 µM), respectively.
For the compound `CCCCNC(=O)CCCCCNC(=O)O[C@H]1[C@H](C)O[C@@H](O[C@H]2[C@H](C)[C@@H](O[C@@H]3O[C@H](C)C[C@H](N(C)C)[C@H]3O)[C@](C)(OC)C[C@@H](C)C(=O)[C@H](C)[C@@H](O)[C@](C)(O)[C@@H](CC)OC(=O)[C@@H]2C)C[C@@]1(C)OC`, the MIC in assay [1] worked out at 0.25 µg/mL (≈ 0.26 µM); in assay [2] it was 128 µg/mL (≈ 133 µM); in assay [3] it was 0.25 µg/mL (≈ 0.26 µM); in assay [4], 8 µg/mL (≈ 8.33 µM); in assay [5], 0.06 µg/mL (≈ 0.0625 µM); in assay [6], 8 µg/mL (≈ 8.33 µM). The MIC is 1 µg/mL (≈ 1.04 µM) in assay [7] and 128 µg/mL (≈ 133 µM) in assay [8].
On to `CCCCCNC(=O)CCCCCNC(=O)O[C@H]1[C@H](C)O[C@@H](O[C@H]2[C@H](C)[C@@H](O[C@@H]3O[C@H](C)C[C@H](N(C)C)[C@H]3O)[C@](C)(OC)C[C@@H](C)C(=O)[C@H](C)[C@@H](O)[C@](C)(O)[C@@H](CC)OC(=O)[C@@H]2C)C[C@@]1(C)OC`, for which the MIC in assay [1] was 0.25 µg/mL (≈ 0.257 µM); in assay [2] it was 128 µg/mL (≈ 131 µM); in assay [3] it was 0.5 µg/mL (≈ 0.513 µM); in assay [4], 8 µg/mL (≈ 8.21 µM); in assay [5] it was 0.03 µg/mL (≈ 0.0308 µM); in assay [6] it was 16 µg/mL (≈ 16.4 µM). For the same compound, the results for the MIC in assay [7] and in assay [8] were 4 µg/mL (≈ 4.11 µM) and 128 µg/mL (≈ 131 µM), respectively.
Consider `CC[C@H]1OC(=O)[C@H](C)[C@@H](O[C@H]2C[C@@](C)(OC)[C@@H](O)[C@H](C)O2)[C@H](C)[C@@H](O[C@@H]2O[C@H](C)C[C@H](N(C)C)[C@H]2O)[C@](C)(O)C[C@@H](C)CN(C)[C@H](C)[C@@H](O)[C@]1(C)O` [AZITHROMYCIN], for which the MIC amounted to 0.03 µg/mL (≈ 0.0401 µM) in assay [1]; 128 µg/mL (≈ 171 µM) in assay [2]; 0.25 µg/mL (≈ 0.334 µM) in assay [3]; 0.12 µg/mL (≈ 0.16 µM) in assay [4]; 0.03 µg/mL (≈ 0.0401 µM) in assay [5]; 8 µg/mL (≈ 10.7 µM) in assay [6]. Moreover, the MIC came to 4 µg/mL (≈ 5.34 µM) in assay [7] and 256 µg/mL (≈ 342 µM) in assay [8].
Consider `CC[C@H]1OC(=O)[C@H](C)[C@@H](O[C@H]2C[C@@](C)(OC)[C@@H](O)[C@H](C)O2)[C@H](C)[C@@H](O[C@@H]2O[C@H](C)C[C@H](N(C)C)[C@H]2O)[C@](C)(OC)C[C@@H](C)C(=O)[C@H](C)[C@@H](O)[C@]1(C)O` [CLARITHROMYCIN], for which the MIC came out at 0.03 µg/mL (≈ 0.0401 µM) in assay [1]; 64 µg/mL (≈ 85.6 µM) in assay [2]; 0.12 µg/mL (≈ 0.16 µM) in assay [3]; 0.03 µg/mL (≈ 0.0401 µM) in assay [4]; 0.03 µg/mL (≈ 0.0401 µM) in assay [5]; 4 µg/mL (≈ 5.35 µM) in assay [6]. The minimal inhibitory concentration (MIC) in assay [7] is 4 µg/mL (≈ 5.35 µM); in assay [8], 128 µg/mL (≈ 171 µM).
As to `CC[C@H]1OC(=O)[C@H](C)[C@@H](O[C@H]2C[C@@](C)(OC)[C@@H](O)[C@H](C)O2)[C@H](C)[C@@H](O[C@@H]2O[C@H](C)C[C@H](N(C)C)[C@H]2O)[C@](C)(O)C[C@@H](C)C(=O)[C@H](C)[C@@H](O)[C@]1(C)O` [ERYTHROMYCIN], the MIC in assay [1] stood at 0.03 µg/mL (≈ 0.0409 µM); in assay [2], 128 µg/mL (≈ 174 µM); in assay [3] it was 0.25 µg/mL (≈ 0.341 µM); in assay [4], 0.25 µg/mL (≈ 0.341 µM); in assay [5] it was 0.03 µg/mL (≈ 0.0409 µM); in assay [6], 4 µg/mL (≈ 5.45 µM). Besides, the MIC in assay [7] worked out at 8 µg/mL (≈ 10.9 µM); in assay [8], 256 µg/mL (≈ 349 µM).
